# The source made the active and inactive calls.
# Legend:
# [1] = molecular target: FAD-linked sulfhydryl oxidase ALR (Homo sapiens, UniProt P55789); assay: inhibitors of human ALR sulfhydryl oxidase, dose response, biochemical, H2O2 detection, luminescence, cherry-pick (AID 493248)
# [2] = molecular target: T1, Heat shock factor protein 1 (Mus musculus, UniProt P38532); assay: HSF1 potentiators in luciferase reporter cells, confirmation, cell-based, NIH3T3, luminescence, dose retest (AID 435004); format: functional;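 also: stress induced by proteasome inhibitor MG132 added 30 min after compound; luciferase reporter driven by HSF1 response element in NIH3T3 cells; actives raise luminescence as potentiators of the MG132 stress response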
# T1 sequence (P38532 whole entry): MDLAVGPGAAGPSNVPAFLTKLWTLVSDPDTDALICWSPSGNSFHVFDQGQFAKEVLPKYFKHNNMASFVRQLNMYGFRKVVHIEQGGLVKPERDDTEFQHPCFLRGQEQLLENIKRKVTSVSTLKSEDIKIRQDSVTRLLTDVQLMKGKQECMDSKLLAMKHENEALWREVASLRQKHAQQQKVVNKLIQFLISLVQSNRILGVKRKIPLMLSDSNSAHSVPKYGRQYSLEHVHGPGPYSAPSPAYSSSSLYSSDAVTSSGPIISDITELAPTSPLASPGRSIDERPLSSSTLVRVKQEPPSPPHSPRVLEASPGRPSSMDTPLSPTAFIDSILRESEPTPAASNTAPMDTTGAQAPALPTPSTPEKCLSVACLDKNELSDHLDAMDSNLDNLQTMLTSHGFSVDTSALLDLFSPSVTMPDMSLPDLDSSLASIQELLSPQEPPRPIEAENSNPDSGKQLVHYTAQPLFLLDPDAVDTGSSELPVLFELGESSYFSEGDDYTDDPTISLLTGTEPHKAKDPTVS
# [3] = molecular target: T2, Carboxy-terminal domain RNA polymerase II polypeptide A small phosphatase 1 (Homo sapiens, UniProt Q9GZU7); assay: inhibitors of CTDSP1, concentration-response testing, biochemical assay, absorbance-based, actives from ultra-high-throughput screening (AID 540297); format: functional
# T2 sequence (Q9GZU7 whole entry): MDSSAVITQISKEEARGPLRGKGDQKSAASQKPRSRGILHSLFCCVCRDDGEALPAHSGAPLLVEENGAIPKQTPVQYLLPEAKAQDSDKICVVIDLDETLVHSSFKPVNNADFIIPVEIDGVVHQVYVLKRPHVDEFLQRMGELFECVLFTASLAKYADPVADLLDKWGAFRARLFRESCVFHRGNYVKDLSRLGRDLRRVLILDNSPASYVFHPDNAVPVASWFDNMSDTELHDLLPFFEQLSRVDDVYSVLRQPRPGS
# [4] = growth suppression of PTEN-null colon cells, dose response, cell-based, HCT116 PTEN knockout (AID 1047); format: functional;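 also: HCT116 colon tumor cells with PTEN knocked out; cells exposed to compound for 60 hours before readout; potency for loss of cell viability measured by luminescence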
# [5] = growth suppression of beta-catenin-knockout colon cells, dose response, cell-based, HCT116, human colon tumor (AID 1045); format: functional;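 also: HCT116 colon tumor cells with beta catenin knocked out; cells exposed to compound for 60 hours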
# [6] = molecular target: T3, RNA-binding protein pos-1 (Caenorhabditis elegans, UniProt G5EF15); assay: inhibitors of POS-1/mex-3 RNA binding, dose response, biochemical, fluorescence polarization (AID 1964);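 also: purified POS-1 fused to maltose binding protein made in E. coli; potency of compounds blocking POS-1 binding to fluorescent RNA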
# T3 sequence (G5EF15 whole entry): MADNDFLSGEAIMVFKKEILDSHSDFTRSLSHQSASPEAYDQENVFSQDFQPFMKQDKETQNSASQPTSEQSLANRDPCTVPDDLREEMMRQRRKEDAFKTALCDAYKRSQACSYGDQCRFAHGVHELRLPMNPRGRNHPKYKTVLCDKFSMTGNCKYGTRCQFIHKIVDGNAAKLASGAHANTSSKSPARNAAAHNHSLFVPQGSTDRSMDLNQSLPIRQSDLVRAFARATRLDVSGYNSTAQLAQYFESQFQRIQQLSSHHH
# [7] = molecular target: T4, Zinc finger protein mex-5 (Caenorhabditis elegans, UniProt Q9XUB2); assay: MEX-5/TCR-2 RNA interaction inhibitors, dose response, biochemical, C. elegans, fluorescence polarization (AID 1960)
# T4 sequence (Q9XUB2 whole entry): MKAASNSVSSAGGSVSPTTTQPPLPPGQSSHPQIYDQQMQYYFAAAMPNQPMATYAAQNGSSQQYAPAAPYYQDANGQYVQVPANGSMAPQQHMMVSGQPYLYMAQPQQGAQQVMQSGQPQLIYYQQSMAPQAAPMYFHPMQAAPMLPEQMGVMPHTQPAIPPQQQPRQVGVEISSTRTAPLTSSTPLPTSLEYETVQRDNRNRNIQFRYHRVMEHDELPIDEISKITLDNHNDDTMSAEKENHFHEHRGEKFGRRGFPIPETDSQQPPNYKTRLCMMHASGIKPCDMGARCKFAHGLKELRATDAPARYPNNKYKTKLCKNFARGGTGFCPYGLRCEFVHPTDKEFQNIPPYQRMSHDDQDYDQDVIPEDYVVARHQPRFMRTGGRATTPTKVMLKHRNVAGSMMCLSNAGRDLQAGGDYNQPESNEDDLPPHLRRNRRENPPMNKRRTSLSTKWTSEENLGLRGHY
# [8] = molecular target: T5, Polyadenylate-binding protein 1 (Homo sapiens, UniProt P11940); assay: PABP1 MLLE–PAM2 interaction inhibitors, dose response, miRNA deadenylation inhibitor project, biochemical, fluorescence polarization, Cy5-PAM2 peptide, secondary (AID 602260); format: functional; settings: read-out: IC50_Mean
# T5 sequence (P11940 whole entry): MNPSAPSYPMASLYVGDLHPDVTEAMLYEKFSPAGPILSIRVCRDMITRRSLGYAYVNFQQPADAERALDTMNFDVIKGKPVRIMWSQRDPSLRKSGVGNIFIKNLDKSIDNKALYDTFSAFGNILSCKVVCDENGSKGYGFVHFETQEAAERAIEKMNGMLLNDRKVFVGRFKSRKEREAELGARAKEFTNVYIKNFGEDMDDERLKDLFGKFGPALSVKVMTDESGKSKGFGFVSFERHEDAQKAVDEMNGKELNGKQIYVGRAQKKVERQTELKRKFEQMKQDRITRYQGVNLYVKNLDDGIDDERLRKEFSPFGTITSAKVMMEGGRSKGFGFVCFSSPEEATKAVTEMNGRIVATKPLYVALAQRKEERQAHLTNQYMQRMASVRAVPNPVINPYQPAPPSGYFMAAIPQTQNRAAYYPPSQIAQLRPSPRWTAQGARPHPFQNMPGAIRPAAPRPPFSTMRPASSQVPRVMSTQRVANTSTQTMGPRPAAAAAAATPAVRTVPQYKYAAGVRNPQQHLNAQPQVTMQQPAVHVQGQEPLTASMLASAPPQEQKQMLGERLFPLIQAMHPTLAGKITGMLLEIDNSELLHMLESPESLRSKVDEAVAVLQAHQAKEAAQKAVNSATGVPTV
# [9] = molecular target: T5, Polyadenylate-binding protein 1; assay: PABP1 MLLE–PAM2 binding inhibitor potency, dose response, biochemical, fluorescence polarization, FITC-PAM2 peptide (AID 602259); format: functional; settings: read-out: IC50_Mean
# Nonstructural protein 1 = Nonstructural protein 1 (Influenza A virus, UniProt Q194T2); format: functional, Influenza A virus (A/California/07/2009(H1N1))
# Chain of Nonstructural protein 1 (Q194T2 whole entry): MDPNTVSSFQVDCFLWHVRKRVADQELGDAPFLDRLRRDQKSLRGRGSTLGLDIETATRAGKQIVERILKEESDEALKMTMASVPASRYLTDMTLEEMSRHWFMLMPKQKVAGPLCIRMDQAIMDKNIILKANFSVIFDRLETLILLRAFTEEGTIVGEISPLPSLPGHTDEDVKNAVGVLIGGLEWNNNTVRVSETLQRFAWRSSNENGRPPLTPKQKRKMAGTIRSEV
# [10] = molecular target: T6, Calpain-2 catalytic subunit (Sus scrofa, UniProt P43367); assay: pig calpain II inhibitor potency, dose response, biochemical, fluorogenic peptide substrate (AID 1420); format: functional
# T6 sequence (P43367 whole entry): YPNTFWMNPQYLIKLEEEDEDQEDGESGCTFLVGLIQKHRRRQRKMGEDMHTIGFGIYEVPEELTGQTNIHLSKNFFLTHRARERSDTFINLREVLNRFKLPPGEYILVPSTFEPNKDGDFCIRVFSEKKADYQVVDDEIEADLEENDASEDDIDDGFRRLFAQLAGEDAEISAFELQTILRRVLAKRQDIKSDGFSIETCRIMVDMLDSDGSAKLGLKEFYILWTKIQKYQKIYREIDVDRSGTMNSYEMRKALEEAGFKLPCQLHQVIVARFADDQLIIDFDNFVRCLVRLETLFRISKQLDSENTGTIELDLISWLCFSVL
# [11] = NIH-3T3 fibroblast cytotoxicity, dose response, cytotoxicity control, cell-based, fluorescence, Alamar Blue, secondary assay (AID 2327); format: functional;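 also: NIH-3T3 mouse fibroblasts cultured with fluconazole at 8 µg/mL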
# [12] = C. albicans growth with fluconazole, confirmation, fluorescence, retest (AID 2467); format: functional, cell-based
# [13] = inhibitors of clade B AD8 Env fusion, dose response, cell-based, cherry-pick (AID 652062); format: functional;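 also: luciferase signal from cell-cell fusion driven by HIV-1 clade B AD8 Env; potency is for inhibitors of fusion seen as a drop in luminescence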
# Cytochrome P450 3A4 = Cytochrome P450 3A4 (Homo sapiens, UniProt P08684);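 also: CYP3A4 tested as one member of a cytochrome P450 panel screen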
# Chain of Cytochrome P450 3A4 (P08684 whole entry): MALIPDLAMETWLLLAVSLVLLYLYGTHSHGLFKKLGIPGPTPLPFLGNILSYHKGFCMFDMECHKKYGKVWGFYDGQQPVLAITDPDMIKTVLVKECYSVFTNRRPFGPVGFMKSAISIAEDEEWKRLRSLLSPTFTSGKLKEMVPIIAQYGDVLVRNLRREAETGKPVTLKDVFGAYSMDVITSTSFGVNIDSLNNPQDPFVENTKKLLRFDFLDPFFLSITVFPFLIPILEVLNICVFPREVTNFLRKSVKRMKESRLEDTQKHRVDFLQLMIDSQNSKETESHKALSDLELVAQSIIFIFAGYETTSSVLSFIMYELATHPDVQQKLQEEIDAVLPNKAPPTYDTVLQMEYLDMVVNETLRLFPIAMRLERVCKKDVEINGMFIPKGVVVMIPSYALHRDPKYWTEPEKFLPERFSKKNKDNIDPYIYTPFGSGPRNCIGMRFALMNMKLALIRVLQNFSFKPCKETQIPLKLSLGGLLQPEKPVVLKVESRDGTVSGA
# Chain of FAD-linked sulfhydryl oxidase ALR (P55789 whole entry): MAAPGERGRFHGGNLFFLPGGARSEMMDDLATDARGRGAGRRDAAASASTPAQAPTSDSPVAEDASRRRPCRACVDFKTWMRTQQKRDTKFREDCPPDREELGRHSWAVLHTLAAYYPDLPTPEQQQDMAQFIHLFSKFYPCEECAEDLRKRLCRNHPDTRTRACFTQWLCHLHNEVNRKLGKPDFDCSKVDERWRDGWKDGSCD
smiles,measurement,setting,value
O=C(Nc1nnc(-c2cccnc2)o1)c1cccc([N+](=O)[O-])c1,AC50,[1],1.61 µM (active)
CCCCC(=O)OCC(=O)c1[nH]c(C)c(C(=O)OCC)c1C,EC50,[2],> 260 µM (inactive)
COc1ccc(CCNCc2ccc(Br)cc2)cc1OC,EC50,[2],> 260 µM (inactive)
O=C(COC(=O)c1ccccc1O)NCc1ccco1,IC50,[3],9.53 µM (active)
Cc1cccc(N=Nc2c(O)nc(O)c(C#N)c2C)c1,EC50,[2],258 µM (active)
COc1ccccc1NC(=O)C1=C(C)N(c2ccccc2)C(S)=NC1c1cccc(C(F)(F)F)c1 (stereo unspecified),EC50,[4],14.3 µM (active)
same,EC50,[5],13.7 µM (active)
CC[N+]1(C)CC2CCC(C)(C1)C2(C)C (stereo unspecified),IC50,[3],27.8 µM (active)
CC(=O)Nc1ccc(N2C(=O)CSC2c2ccccc2[N+](=O)[O-])cc1 (stereo unspecified),AC50,[1],0.517 µM (active)
O=C(CCS(=O)(=O)c1ccc(Br)cc1)NC1CCCC1,IC50,[3],9.44 µM (active)
O=c1[nH]c(CN2CCc3ccccc3C2)nc2ccccc12,EC50,[6],> 300 µM (not active)
same,EC50,[7],> 300 µM (not active)
same,IC50,[8],> 66 µM (inactive)
same,IC50,[9],> 66 µM (inactive)
Cc1cc(S(=O)(=O)N2CCN(c3ccccc3O)CC2)c(C)s1,AC50,[1],0.156 µM (active)
CCN(CC)c1ccc(Nc2nc(N3CCOCC3)c3ccccc3n2)cc1,IC50,Nonstructural protein 1,11.5 µM (active)
Cc1ccc(NC2OC(CO)C(O)C2O)cc1[N+](=O)[O-] (stereo unspecified),IC50,[10],> 50 µM (not active)
same,EC50,[2],> 260 µM (inactive)
COc1ccc(C2C(C#N)=C(/N=C/N3CCOCC3)OC3=C2C(=O)CC(C)(C)C3)cc1OC (stereo unspecified),EC50,[6],> 300 µM (not active)
same,EC50,[7],> 300 µM (not active)
C#CCOCCOCCOCCNc1nc(N2CCN(C(=O)[C@H]([C@@H](C)CC)n3cc([C@@H](N)CO)nn3)CC2)nc(N2CCN(C(=O)[C@H]([C@@H](C)CC)n3cc([C@@H](N)CC(C)C)nn3)CC2)n1,EC50,[6],24.4 µM (active)
same,EC50,[7],18 µM (active)
same,IC50,[8],> 66 µM (inactive)
same,IC50,[9],43.1 µM (inactive)
C=CC[n+]1c(-c2ccc(C)cc2)csc1NNC(=O)Nc1ccccc1,EC50,[11],> 150 µM (inconclusive)
same,EC50,[12],1.27 µM (active)
same,AC50,[13],9.27 µM (active)
same,AC50,Cytochrome P450 3A4,3.55 µM (inconclusive)
COC(=O)CCC(=O)OC1(C)C(=O)C=C2C=C(C3CC3)OC=C2C1=O (stereo unspecified),EC50,[6],17.7 µM (active)
same,EC50,[7],68.8 µM (inconclusive)
Cc1ccc(-c2nc(-c3ccccn3)sc2CC(=O)O)cc1,AC50,[1],0.226 µM (active)
CC(C)OC(=O)CC(=O)CSc1nc2c(cc1C#N)CCC2,EC50,[4],5.82 µM (active)
same,EC50,[5],8.4 µM (active)
CCNc1ccc(S(=O)(=O)N(C)C)cc1NCC(=O)Nc1ccccc1F,AC50,[1],1.8 µM (active)
O=C(NCc1ccccn1)C(=O)N/N=C/c1ccccc1O,IC50,Nonstructural protein 1,14 µM (active)
O=C(N/N=C/c1ccncc1)c1ccc(NC(=O)c2cccc(Cl)c2)cc1,IC50,[3],13.9 µM (active)
COc1ccc(CSc2nc(O)cc(=O)n2CC(C)C)cc1F,AC50,[1],0.949 µM (active)
O=C(Nc1c(C(=O)c2ccccc2)oc2ccccc12)c1cc(-c2ccccc2O)n[nH]1,EC50,[2],> 260 µM (inactive)
CCOC(=O)C(C(=O)OCC)C(C(=O)OCC)N1CCOCC1 (stereo unspecified),EC50,[4],6.34 µM (active)
same,EC50,[5],5.16 µM (active)
NC(=O)c1cccc(/N=C/c2cc(Cl)cc(Cl)c2O)c1,EC50,[6],> 300 µM (not active)
same,EC50,[7],> 300 µM (not active)
COc1cccc(N2C(=O)NC(=O)/C(=C/Nc3c(C)n(C)n(-c4ccccc4)c3=O)C2=O)c1,EC50,[6],> 300 µM (not active)
same,EC50,[7],> 300 µM (not active)
CN(C)c1ccc(CN(Cc2ccco2)C(=O)c2ccco2)cc1,AC50,[1],0.822 µM (active)
O=C(CSc1nnc(Nc2ccccc2F)s1)NC(=O)CN1CCCC1=O,IC50,[3],5.43 µM (active)
O=C(Nc1ccc2c(c1)C(=O)NC2=O)c1cccc(C(F)(F)F)c1,IC50,[3],9.33 µM (active)
O=C(CN1C(=O)c2cccc3cccc(c23)C1=O)N1CCN(Cc2ccc3c(c2)OCO3)CC1,IC50,Nonstructural protein 1,> 100 µM (active)
COc1ccc(Br)cc1CNc1ccc2[nH]c(O)nc2c1,AC50,[1],1.08 µM (active)
COC(=O)C1=C(C)N(c2cc(Cl)cc(Cl)c2)C(=O)C1,EC50,[4],35.6 µM (active)
same,EC50,[5],42.9 µM (active)

# Source: ChEMBL document CHEMBL1201862, “PubChem BioAssay data set” (2004)
